Measured values taken from ChEMBL document CHEMBL4834398, “Synthesis of Yakuchinone B-Inspired Inhibitors against Islet Amyloid Polypeptide Aggregation” (J Nat Prod, 2021).
Active and inactive are the calls of the source. The rule behind the calls is not given here.

Legend:
BRIN-BD11 [1] = experiment: Protective activity against IAPP-induced toxicity in rat […] cells assessed as cell viability at 0.02 to 0.63 uM after 72 hrs by MTT assay; assay type: functional, cell-based; settings: dose 0.02-0.63 µM
[2] = Protective activity against IAPP-induced toxicity in rat BRIN-B11 cells assessed as cell viability after 72 hrs by MTT assay; settings: BRIN-BD11, 72 h
BRIN-BD11 [3] = experiment: Protective activity against IAPP-induced toxicity in rat […] cells assessed as cell viability at 10 uM after 72 hrs by MTT assay; assay type: functional, cell-based
[4] = target: T1, Islet amyloid polypeptide (Homo sapiens, UniProt P10997); experiment: Inhibition of islet amyloid polypeptide (unknown origin) aggregation after 24 hrs by thioflavin T based fluorescence assay
T1 sequence (P10997 whole entry): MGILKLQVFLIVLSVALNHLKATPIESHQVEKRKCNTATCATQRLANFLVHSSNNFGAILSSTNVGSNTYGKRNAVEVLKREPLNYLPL

IC50 [4] | Structure (SMILES) | Activity (BRIN-BD11 [1]) | EC50 [2] | Activity (BRIN-BD11 [3])
– | CCCC(=O)/C=C/c1cccc(O)c1O | Active | 100 nM | –
– | CCCCC(=O)/C=C/c1cccc(O)c1O | Active | 200 nM | –
– | CCC(=O)/C=C/c1cccc(O)c1O | – | – | inactive
> 10000 nM | CC(=O)CCc1ccc(O)c(O)c1 | – | – | –
3700 nM | CC(=O)/C=C/c1ccc(O)c(O)c1 | – | – | –
7800 nM | O=c1c(O)c(-c2ccc(O)cc2O)oc2cc(O)cc(O)c12 [MORIN] | – | 1000 nM | –
– | CC(=O)/C=C/c1cccc(O)c1O | – | – | inactive
